Measurements taken from EP0364581A1, “METHOD OF STERILIZING PLANT POLLEN” (VSESOJUZNY NAUCHNO-ISSLEDOVATELSKY INST. SELSKOKHOZYAISTV. …, priority 1988, dated 1989).
Read-outs that look alike come from different tables or passages of the source.

Key:
Assay in all cases: field test of gametocidal activity (sterilisation of anthers)
Format in all cases: in vivo
[1] = tested on: Winterweizen Mironovskaya 808; conditions: treated in V. Periode der Organogenese, 2%ige wäßrige Emulsion, 20 kg/ha; for Prozentsatz des Ansetzens der Körner bei freier Bestäubung: control = 100
Description: (§1) Die gametozide Aktivität der erfindungsgemäßen Sterilisationsmittel war in Feldversuch in verschiedenen bodenklimatischen Zonen mit Teilstücken von 10 m^2 Größe in drei-- bis viermaliger Wiederholung nachgewiesen. Jedes Sterilisationsmittel wurde mindestens 5 Jahre lang geprüft.
(§2) Die Entwicklung der Perioden der Organogenese wird zytologisch überwacht. Die Behandlung von Pflanzen mit dem Sterilisationsmittel erfolgt am Anfang der fünften Periode der Organogenese nach Kupermann.
(§3) Mit dem Ahrenschieben verwirklicht man die Isolierung von Hauptähren und anderen Stockwerken in Pergamentbeuteln. Bei Weizen und Tritikale werden Einzelisolatoren verwendet. Bei Roggen schließt man je 1 Ähre von 5 bis 7 verschiedenen nebeneinander befindlichen Pflanzen in einen gemeinsamen Isolator ein. Bei Hirse wird jede Rispe getrennt isoliert. Der Sterilitätsprozentsatz (X) für Weizen, Roggen, Tritikale und Hirse wird nach der Formel [formula]
(§4) Samen von unbehandelten Kontrollpflanzen ermittelt.
(§5) Die Kornzahl in nicht isolierten Ähren von Kontrollpflanzen wird bedingt für 100% Ansetzen bei freier Bestäubung angenommen.
(§6) Um zuverlässige Angaben zu erhalten, verwendet man 20 bis 25 Isolatoren jeder Wiederholung für Weizen und Tritikale, 10 bis 15 Isolatoren jeder Wiederholung für Roggen und Hirse.
Pflanzen des Winterweizens Sorte Mironovskaya 808 werden in der V. Periode der Organogenese durch Zerstäubung einer 2%igen wäßrigen Emulsion des Kaliumsalzes von 2-Methyl-3-zyklohexenkarbonsäure mit Hilfe einer Rückenspritze behandelt. Als Emulgiermittel setzt man 0,1 Masse% C12--C14 - Kalziumalkylbenzolsulfonat zu. Als Adjuvans führt man in die Emulsion 0,01 Masse% Dimethylformamid ein. Der Verbrauch an Präparat beträgt 20 kg/ha. Als Kontrolle dienen Pflanzen, behandelt mit einem Verdünner ohne Sterilisationsmittel. Die Ergebnisse sind in der Tabelle 1 angegeben. […] Periode der Organogenese erhalten.
Der Prozeß wird analog zu dem in Beispiel 1 beschriebenen durchgeführt. Als Sterilisationsmittel verwendet man eine 2%ige wäßrige Emulsion von 2-Methyl-3-zyklohexenkarbon- säuremethylester, Ammoniumsalz der 2-Methyl-[…], Phthalsäuredihexylester, Phthalsäuredibutylester, Phthalsäuredipropylester, Phthalsäurediisobutylester, Phthalsäurediäthylester. Die Ergebnisse sind in der Tabelle 1 angeführt. […]

[2] = tested on: tetraploidem Roggen Sorte Belta; conditions: V. Periode, 1%ige wäßrige Emulsion, 6 kg/ha
Description: as §1, §2, §3, §4, §5, §6
Pflanzen von tetraploidem Roggen Sorte Belta werden in der V. Periode der Organogenese (nach Kupermann) mit einer 1%igen wäßrigen Emulsion von Kaliumsalz der 2-Methyl-3-zy- klohexenkarbonsäure, 2-Methyl-3-zyklohexenkarbonsäuremethyl- ester, Phthalsäuredibutylester, Phthalsäuredihexylester, Phthalsäuredipropylester, Phthalsäurediallylester, Phthalsäurediisobutylester, Kaliumsalz der […] behandelt. Die Emulsion enthält 0,01 Masse% Dimethylsuloxid und 0,1 Masse% C12-C14-Kalziumalkylbenzolsulfonat. Der Verbrauch an Präparat beträgt 6 kg/ha. Als Kontrolle dienen Pflanzen behandelt mit einem Verdünner ohne Sterilisationsmittel.

Diploider Roggen Chulpan = conditions: for response vs control in vivo at 8000 g/ha: read-out: Prozentsätz des Ansetzens der Körner bei freier Bestäubung; for percent sterility at 8000 g/ha / pest or weed control at 8000 g/ha: read-out: Prozentsatz der Sterilität
Description: as §1, §2, §3, §4, §5, §6
Pflanzen von diploidem Roggen Sorte Chulpan werden in der V. Periode der Organogenese (nach Kupermann) mit einer 1%igen wäßrigen Emulsion von Kaliumsalz der 2-Methyl-3-zy- klohexenkarbonsäure, 2-Methyl-3-zyklohexenkarbonsäuremethyl- ester, Kaliumsalz der Salizylsäure, Phthalsäurediallylester, Phthalsäurediisobutylester, Phthalsäuredipropylester, Phthalsäuredihexylester, Phthalsäuredibutylester. Die Emulsion enthält 0,01 Masse% Tetrahydrofuran und 0,1 Masse% C12-C14--Kalziumalkylbenzolsulfonat. Der Verbrauch an Präparat beträgt 8 kg/ha. Als Kuntrolle dienen Pflanzen, behandelt mit einem Verdünner ohne Sterilisationsmittel. […]

[3] = tested on: Hirse Sorte Mironovskoe 94; conditions: V. Periode, 1%ige wäßrige Emulsion, 10 kg/ha; for Prozentsatz des Ansetzens der Körner bei freier Bestäubung: control = 100
Description: as §1, §2, §3, §4, §5, §6
Pflanzen der Hirse Sorte Mironovskoe 94 werden in der V. Periode der Organogenese (nach Kupermann) mit einer l%igen wäßrigen Emulsion von Kaliumsalz der 2-Methyl-3-zyklohexen- karbonsäure, 2-Methyl-3-zyklohexenkarbonsäuremethylester, Phthalsäuredihexylester, Phthalsäuredibutylester, Phthalsäuredipropylester, Natriumsalz der p-Hydroxybenzoesäure, Phthalsäurediäthylester, Phthalsäurediallylester behandelt. Die Emulsion enthält 0,01 Masse% Dimethylformamid und 0,1 Masse% C12-C14-Kalziumalkylbenzolsulfonat. Der Verbrauch an Präparat beträgt 10 kg/ha. Als Kontrolle dienen Pflanzen, behandelt mit einem Verdünner ohne Sterilisationsmittel. Die Prüfergebnisse sind in der Tabelle 17 angeführt. […] Periode der Organogenese erhalten.

[4] = Chulpan, V. Periode, 1%ige wäßrige Emulsion, 8 kg/ha
[5] = Chulpan, V. Periode, 1%ige wäßrige Emulsion, 8 kg/ha, control = 100

| SMILES | Kornzahl der Ähre bei freier Bestäubung [1] | Kornzahl der Ähre im Isolator [1] | Prozentsatz der Sterilität [1] | Prozentsatz des Ansetzens der Körner bei freier Bestäubung [1] | Kornzahl der Ähre bei freier Bestäubung (Diploider Roggen Chulpan; [4]) | Kornzahl der Ähre im Isolator (Diploider Roggen Chulpan; [4]) | Kornzahl der Rispe bei freier Bestäubung [3] | Kornzahl der Rispe im Isolator [3] | Prozentsatz der Sterilität [3] | Prozentsatz des Ansetzens der Körner bei freier Bestäubung [3] | further results |
| --- | --- | --- | --- | --- | --- | --- | --- | --- | --- | --- | --- |
| CC1C=CCCC1C(=O)[O-].[K+] (stereo not shown) [Beispiel 1, Kaliumsalzes von 2-Methyl-3-zyklohexenkarbonsäure] | 38,6 | 3,2 | 91,5% | 95,5% |  |  |  |  |  |  |  |
| COC(=O)C1CCC=CC1C (stereo not shown) [Beispiel 2, 2-Methyl-3-zyklohexenkarbon-säuremethylester] | 30,1 | 0,0 | 100,0% | 74,5% |  |  |  |  |  |  |  |
| CC1C=CCCC1C(=O)O.N (stereo not shown) [Beispiel 3, Ammoniumsalz der 2-Methyl-23-zyklohexen-karbonsäure] | 39,2 | 0,6 | 98,4% | 97,0% |  |  |  |  |  |  |  |
| CCCCCCOC(=O)c1ccccc1C(=O)OCCCCCC [Beispiel 4, Phthalsäuredihexylester] | 38,2 | 4,2 | 88,9% | 94,5% |  |  |  |  |  |  |  |
| CCCCOC(=O)c1ccccc1C(=O)OCCCC [Beispiel 5, Phthalsäuredibutylester] | 31,7 | 0,0 | 100,0% | 78,5% |  |  |  |  |  |  |  |
| CCCOC(=O)c1ccccc1C(=O)OCCC [Beispiel 6, Phthalsäuredipropylester] | 39,0 | 5,0 | 86,8% | 96,5% |  |  |  |  |  |  |  |
| CC(C)COC(=O)c1ccccc1C(=O)OCC(C)C [Beispiel 7, Phthalsäurediisobutylester] | 37,7 | 0,2 | 99,5% | 93,3% |  |  |  |  |  |  |  |
| CCOC(=O)c1ccccc1C(=O)OCC [Beispiel 8, Phthalsäurediäthylester] | 39,8 | 0,5 | 98,7% | 98,5% |  |  |  |  |  |  |  |
| CC1C=CCCC1C(=O)O (stereo not shown) [Beispiel 48, Kaliumsalz der 2-Methyl-3-zy-klohexenkarbonsäure] |  |  |  |  |  |  |  |  |  |  | Kornzahl der Ähre bei freier Bestäubung [2]: 45,6; Kornzahl der Ähre im Isolator [2]: 0,1; Prozentsatz der Sterilität [2]: 99,8%; Prozentsatz des Ansetzens bei freier Bestäubung ([2]; control = 100): 96,8% |
| CC1C=CCCC1C(=O)O (stereo not shown) [Beispiel 60, Kaliumsalz der 2-Methyl-3-zy-klohexenkarbonsäure] |  |  |  |  | 55,2 | 0,0 |  |  |  |  | response vs control in vivo at 8000 g/ha (Diploider Roggen Chulpan; [5]): 97.1%; percent sterility at 8000 g/ha (Diploider Roggen Chulpan; [4]): 100% |
| COC(=O)C1CCC=CC1C (stereo not shown) [Beispiel 61, 2-Methyl-3-zyklohexenkarbonsäuremethyl-ester] |  |  |  |  | 51,0 | 0,0 |  |  |  |  | response vs control in vivo at 8000 g/ha (Diploider Roggen Chulpan; [5]): 89.8%; percent sterility at 8000 g/ha (Diploider Roggen Chulpan; [4]): 100% |
| O=C(O)c1ccccc1O [Beispiel 62, Kaliumsalz der Salizylsäure] |  |  |  |  | 50,4 | 10,4 |  |  |  |  | pest or weed control at 8000 g/ha (Diploider Roggen Chulpan): 79.7%; response vs control in vivo at 8000 g/ha (Diploider Roggen Chulpan): 88.7% |
| C=CCOC(=O)c1ccccc1C(=O)OCC=C [Beispiel 63, Phthalsäurediallylester] |  |  |  |  | 53,7 | 0,3 |  |  |  |  | percent sterility at 8000 g/ha (Diploider Roggen Chulpan; [4]): 99.4%; response vs control in vivo at 8000 g/ha (Diploider Roggen Chulpan): 94.5% |
| CC(C)COC(=O)c1ccccc1C(=O)OCC(C)C [Beispiel 64, Phthalsäurediisobutylester] |  |  |  |  | 52,2 | 0,5 |  |  |  |  | pest or weed control at 8000 g/ha (Diploider Roggen Chulpan): 99%; response vs control in vivo at 8000 g/ha (Diploider Roggen Chulpan): 91.9% |
| CCCOC(=O)c1ccccc1C(=O)OCCC [Beispiel 65, Phthalsäuredipropylester] |  |  |  |  | 53,2 | 0,0 |  |  |  |  | pest or weed control at 8000 g/ha (Diploider Roggen Chulpan): 100%; response vs control in vivo at 8000 g/ha (Diploider Roggen Chulpan): 93.6% |
| CCCCCCOC(=O)c1ccccc1C(=O)OCCCCCC [Beispiel 66, Phthalsäuredihexylester] |  |  |  |  | 57,0 | 0,0 |  |  |  |  | pest or weed control at 8000 g/ha (Diploider Roggen Chulpan): 100%; response vs control in vivo at 8000 g/ha (Diploider Roggen Chulpan): 100% |
| CCCCOC(=O)c1ccccc1C(=O)OCCCC [Beispiel 67, Phthalsäuredibutylester] |  |  |  |  | 50,5 | 0,0 |  |  |  |  | pest or weed control at 8000 g/ha (Diploider Roggen Chulpan): 100%; response vs control in vivo at 8000 g/ha (Diploider Roggen Chulpan): 88.9% |
| CC1C=CCCC1C(=O)[O-].[K+] (stereo not shown) [Beispiel 89, Kaliumsalz der 2-Methyl-3-zyklohexen-karbonsäure] |  |  |  |  |  |  | 304,3 | 0,0 | 100,0% | 80,2% |  |
| COC(=O)C1CCC=CC1C (stereo not shown) [Beispiel 90, 2-Methyl-3-zyklohexenkarbonsäuremethylester] |  |  |  |  |  |  | 327,6 | 0,0 | 100,0% | 86,3% |  |
| CCCCCCOC(=O)c1ccccc1C(=O)OCCCCCC [Beispiel 91, Phthalsäuredihexylester] |  |  |  |  |  |  | 311,5 | 0,0 | 100,0% | 82,1% |  |
| CCCCOC(=O)c1ccccc1C(=O)OCCCC [Beispiel 92, Phthalsäuredibutylester] |  |  |  |  |  |  | 351,4 | 0,0 | 100,0% | 92,6% |  |
| CCCOC(=O)c1ccccc1C(=O)OCCC [Beispiel 93, Phthalsäuredipropylester] |  |  |  |  |  |  | 308,7 | 0,0 | 100,0% | 81,3% |  |
| O=C([O-])c1ccc(O)cc1.[Na+] [Beispiel 94, Natriumsalz der p-Hydroxybenzoesäure] |  |  |  |  |  |  | 400,7 | 0,0 | 100,0% | 105,6% |  |
| CCOC(=O)c1ccccc1C(=O)OCC [Beispiel 95, Phthalsäurediäthylester] |  |  |  |  |  |  | 352,5 | 0,0 | 100,0% | 92,6% |  |
| C=CCOC(=O)c1ccccc1C(=O)OCC=C [Beispiel 96, Phthalsäurediallylester] |  |  |  |  |  |  | 335,2 | 0,0 | 100,0% | 88,3% |  |
